According to patent US10407414B2, “Mannose derivatives for treating bacterial infections” (priority 2015, dated 2019):

What follows are molecules tested on bacterial strain LF82 binding to the glycoprotein BSA-(Mannose)3 (FimH antagonists) (assay: Bacterial Binding Assay (BBA)). Details: read-out: Bacterial Binding Assay IC50 ± SEM.
Type: cell-based, Escherichia coli
Outline: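 Luciferase-expressing E. coli LF82, grown overnight at 37 °C without shaking, added as 2×10^8 bacteria/mL suspension with compound in BSA/D-PBS binding buffer. Wells were coated with 0.5–2 μg/mL BSA-(Man)3 and BSA-blocked, with 40–75 min binding at room temperature. After washing, adherent bacteria were read by luciferase luminescence and IC50 derived.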

Row | Compound | IC50 [nM]
1 | Cc1cc(=O)[nH]cc1-c1cc(C#C[C@H]2O[C@H](CO)[C@@H](O)[C@H](O)[C@@H]2O)c2[nH]ncc2c1 [Compound 56, 4-methyl-5-[7-[2-[(2R,3S,4R,5S,6R)-3,4,5-trihydroxy-6-(hydroxymethyl)tetrahydropyran-2-yl]ethynyl]-1H-indazol-5-yl]-1H-pyridin-2-one] | 0.2 ± 0.02
2 | NS(=O)(=O)c1cccc(-c2cc(C#C[C@H]3O[C@H](CO)[C@@H](O)[C@H](O)[C@@H]3O)c3[nH]ncc3c2)c1 [Compound 41, 3-[7-[2-[(2R,3S,4R,5S,6R)-3,4,5-trihydroxy-6-(hydroxymethyl)tetrahydropyran-2-yl]ethynyl]-1H-indazol-5-yl]benzenesulfonamide] | 0.4 ± 0.04
3 | CCCCc1cc(C#C[C@H]2O[C@H](CO)[C@@H](O)[C@H](O)[C@@H]2O)c2[nH]cnc2c1 [Compound 20, (2R,3S,4R,5S,6R)-2-[2-(6-butyl-3H-benzimidazol-4-yl)ethynyl]-6-(hydroxymethyl)tetrahydropyran-3,4,5-triol] | 2 ± 0.2
4 | OC[C@H]1O[C@H](C#Cc2cccc3ncoc23)[C@@H](O)[C@@H](O)[C@@H]1O [Compound 10, (2R,3S,4R,5S,6R)-2-[2-(1,3-benzoxazol-7-yl)ethynyl]-6-(hydroxymethyl)tetrahydropyran-3,4,5-triol] | 217 ± 133
5 | CNC(=O)c1cncc(-c2cc(C#C[C@H]3O[C@H](CO)[C@@H](O)[C@H](O)[C@@H]3O)c3[nH]ncc3c2)c1 [Compound 42, N-methyl-5-[7-[2-[(2R,3S,4R,5S,6R)-3,4,5-trihydroxy-6-(hydroxymethyl)tetrahydropyran-2-yl]ethynyl]-1H-indazol-5-yl]pyridine-3-carboxamide] | 0.6 ± 0.2
6 | CCN(CC)S(=O)(=O)c1ccc(C)c(-c2cc(C#C[C@H]3O[C@H](CO)[C@@H](O)[C@H](O)[C@@H]3O)c3[nH]ncc3c2)c1 [Compound 93, N,N-diethyl-4-methyl-3-[7-[2-[(2R,3S,4R,5S,6R)-3,4,5-trihydroxy-6-(hydroxymethyl)tetrahydropyran-2-yl]ethynyl]-1H-indazol-5-yl]benzenesulfonamide] | 1
7 | OC[C@H]1O[C@H](C#Cc2cc(-c3ccc4nccn4c3)cc3cn[nH]c23)[C@@H](O)[C@@H](O)[C@@H]1O [Compound 32, (2R,3S,4R,5S,6R)-2-(hydroxymethyl)-6-[2-(5-imidazo[1,2-a]pyridin-6-yl-1H-indazol-7-yl)ethynyl]tetrahydropyran-3,4,5-triol] | 0.6 ± 0.005
8 | O=c1ccc(-c2cc(C#C[C@H]3O[C@H](CO)[C@@H](O)[C@H](O)[C@@H]3O)c3[nH]ncc3c2)c[nH]1 [Compound 74, 5-[7-[2-[(2R,3S,4R,5S,6R)-3,4,5-trihydroxy-6-(hydroxymethyl)tetrahydropyran-2-yl]ethynyl]-1H-indazol-5-yl]-1H-pyridin-2-one] | 0.3 ± 0.05
9 | CN(C(=O)c1cc(C#C[C@H]2O[C@H](CO)[C@@H](O)[C@H](O)[C@@H]2O)c2[nH]ncc2c1)C1CCCCC1 [Compound 60, N-cyclohexyl-N-methyl-7-[2-[(2R,3S,4R,5S,6R)-3,4,5-trihydroxy-6-(hydroxymethyl)tetrahydropyran-2-yl]ethynyl]-1H-indazole-5-carboxamide] | 3 ± 2
10 | COc1ncc(C)cc1-c1cc(C#C[C@H]2O[C@H](CO)[C@@H](O)[C@H](O)[C@@H]2O)c2[nH]ncc2c1 [Compound 78, (2R,3S,4R,5S,6R)-2-(hydroxymethyl)-6-[2-[5-(2-methoxy-5-methyl-3-pyridyl)-1H-indazol-7-yl]ethynyl]tetrahydropyran-3,4,5-triol] | 2 ± 0.6
11 | CCCCc1cc(C#C[C@H]2O[C@H](CO)[C@@H](O)[C@H](O)[C@@H]2O)c2[nH]ncc2c1 [Compound 24, (2R,3S,4R,5S,6R)-2-[2-(5-butyl-1H-indazol-7-yl)ethynyl]-6-(hydroxymethyl)tetrahydropyran-3,4,5-triol] | 1 ± 0.2
12 | Cc1nnc(-c2ccc(-c3cc(C#C[C@H]4O[C@H](CO)[C@@H](O)[C@H](O)[C@@H]4O)c4[nH]ncc4c3)cc2)o1 [Compound 39, (2R,3S,4R,5S,6R)-2-(hydroxymethyl)-6-[2-[5-[4-(5-methyl-1,3,4-oxadiazol-2-yl)phenyl]-1H-indazol-7-yl]ethynyl]tetrahydropyran-3,4,5-triol] | 0.2 ± 0.05
13 | Cc1cnccc1-c1cc(C#C[C@H]2O[C@H](CO)[C@@H](O)[C@H](O)[C@@H]2O)c2[nH]ncc2c1 [Compound 34, (2R,3S,4R,5S,6R)-2-(hydroxymethyl)-6-[2-[5-(3-methyl-4-pyridyl)-1H-indazol-7-yl]ethynyl]tetrahydropyran-3,4,5-triol] | 0.4 ± 0.09
14 | Cc1cc(C#C[C@H]2O[C@H](CO)[C@@H](O)[C@H](O)[C@@H]2O)c2[nH]ncc2c1 [Compound 2, (2R,3S,4R,5S,6R)-2-(hydroxymethyl)-6-[2-(5-methyl-1H-indazol-7-yl)ethynyl]tetrahydropyran-3,4,5-triol] | 14 ± 2
15 | N#Cc1cc(C#C[C@H]2O[C@H](CO)[C@@H](O)[C@H](O)[C@@H]2O)c2nc[nH]c2c1 [Compound 5, 7-[2-[(2R,3S,4R,5S,6R)-3,4,5-trihydroxy-6-(hydroxymethyl)tetrahydropyran-2-yl]ethynyl]-3H-benzimidazole-5-carbonitrile] | 20 ± 2
16 | COc1ccc(Cn2cc3cc(Br)cc(C#C[C@H]4O[C@H](CO)[C@@H](O)[C@H](O)[C@@H]4O)c3n2)cc1 [Compound 17, (2R,3S,4R,5S,6R)-2-[2-[5-bromo-2-[(4-methoxyphenyl)methyl]indazol-7-yl]ethynyl]-6-(hydroxymethyl)tetrahydropyran-3,4,5-triol] | 46 ± 14
17 | CN1CC=C(c2cc(C#C[C@H]3O[C@H](CO)[C@@H](O)[C@H](O)[C@@H]3O)c3[nH]ncc3c2)CC1 [Compound 67, (2R,3S,4R,5S,6R)-2-(hydroxymethyl)-6-[2-[5-(1-methyl-3,6-dihydro-2H-pyridin-4-yl)-1H-indazol-7-yl]ethynyl]tetrahydropyran-3,4,5-triol] | 2 ± 0.9
18 | CCCCc1cc(C#C[C@H]2O[C@H](CO)[C@@H](O)[C@H](O)[C@@H]2O)c2[nH]nnc2c1 [Compound 19, (2R,3S,4R,5S,6R)-2-[2-(6-butyl-3H-benzotriazol-4-yl)ethynyl]-6-(hydroxymethyl)tetrahydropyran-3,4,5-triol] | 2 ± 0.6
19 | CNC(=O)c1cc(-c2cc(C#C[C@H]3O[C@H](CO)[C@@H](O)[C@H](O)[C@@H]3O)c3[nH]ncc3c2)ccn1 [Compound 92, N-methyl-4-[7-[2-[(2R,3S,4R,5S,6R)-3,4,5-trihydroxy-6-(hydroxymethyl)tetrahydropyran-2-yl]ethynyl]-1H-indazol-5-yl]pyridine-2-carboxamide] | 1

The molecules below were run on AIEC LF82 strain on T84 intestinal epithelial cells (assay: Adhesion assay of AIEC LF82 strain on T84 intestinal epithelial cells (post-incubation test)). Details: at 10 nM; compound added after infection of T84 cells with LF82, 3 h at 37° C.
Type: cell-based, E. coli
Method: Residual adhesion is the ratio of level of colonization/decolonization of AIEC measured on cells, and is expressed in percentage. 100% corresponds to the control experiment (NT).
Adhesion Assays of AIEC LF82 Strain on T84 Intestinal Epithelial Cells
Compound 56 was evaluated for its ability to inhibit the adhesion of bacteria AIEC LF82 strain on T84 intestinal cells, in order to assess the therapeutic potential of the tested compounds in Crohn's Disease (CD) in particular. The following post-incubation test was used (also described in Brument et al. J. Med. Chem. 2013, 56, 5395-5406), wherein the tested compound is added after the bacteria are brought into contact with the cells. This test thus mimics a use of the compounds in curative treatment of pathologies associated with AIECs, in particular Crohn's disease.
E. coli strain LF82 isolated from an ileal biopsy of a CD patient was used as the AIEC reference strain. Bacteria were grown overnight in Luria-Bertani (LB) broth, and a bacterial suspension was prepared at a concentration of 6×10^6 bacteria/mL in DMEM/F12/SVF dec 10% medium for adhesion assays. The human intestinal cell line T84, purchased from American Type Culture Collection (ATCC, CCL-248), was maintained in an atmosphere containing 5% CO2 in the culture medium recommended by ATCC. […]

Row | Compound | decolonization of adherent bacteria
20 | Cc1cc(=O)[nH]cc1-c1cc(C#C[C@H]2O[C@H](CO)[C@@H](O)[C@H](O)[C@@H]2O)c2[nH]ncc2c1 [Compound 56, 4-methyl-5-[7-[2-[(2R,3S,4R,5S,6R)-3,4,5-trihydroxy-6-(hydroxymethyl)tetrahydropyran-2-yl]ethynyl]-1H-indazol-5-yl]-1H-pyridin-2-one] | about 50%

Same assay, conditions: from a concentration of 100 nM; FIG. 1

Row | Compound | activity for the decolonization of the LF82 AIEC from T84 cells
21 | Cc1cc(=O)[nH]cc1-c1cc(C#C[C@H]2O[C@H](CO)[C@@H](O)[C@H](O)[C@@H]2O)c2[nH]ncc2c1 [Compound 56, 4-methyl-5-[7-[2-[(2R,3S,4R,5S,6R)-3,4,5-trihydroxy-6-(hydroxymethyl)tetrahydropyran-2-yl]ethynyl]-1H-indazol-5-yl]-1H-pyridin-2-one] | potent activity
